# Measurements as given in US8420657B2 (Novartis AG, priority 2008, dated 2013).
# Target: T1, GST-JAK2(808-1132) (Homo sapiens, UniProt O60674)
# T1 construct: GST-JAK2(808-1132); purchased Invitrogen (Carlsbad, USA) #4288
# Test: JAK2 kinase assay (Caliper mobility shift, LabChip 3000)
# Assay type: biochemical
# From the text: All four kinases of the JAK/TYK-kinase family were used as purified recombinant GST-fusion proteins, containing the active kinase domains. GST-JAK1 (866-1154), GST-JAK3(811-1124), and GST-TYK2(888-1187) were expressed and purified by affinity chromatography at the EPK biology unit. GST-JAK2(808-1132) was purchased from Invitrogen (Carlsbad, USA, #4288).
# The kinase assays were based on the Caliper mobility shift assay using the LabChip 3000 systems. This technology is similar to capillary electrophoresis and uses charge driven separation of substrate and product in a microfluidic chip.
# All kinase reactions were performed in 384 well microtiter plates in a total reaction volume of 18 μl. The assay plates were prepared with 0.1 μl per well of test compound in the appropriate test concentration, as described under the section “preparation of compound dilutions”. The reactions were started by combining 9 μl of substrate mix (consisting of peptide and ATP) with 9 μl of kinase dilution. The reactions were incubated for 60 minutes at 30° C. and stopped by adding 70 μl of stop buffer (100 mM Hepes, 5% DMSO, 0.1% Coating reagent, 10 mM EDTA, 0.015% Brij 35).
# Fluorescently labeled synthetic peptides were used as substrates in all reactions. A peptide derived from the sequence of IRS-1(IRS-1 peptide, SEQ ID NO: 1 FITC-Ahx-KKSRGDYMTMQIG-NH2) was used for JAK1 and TYK2 and a peptide named JAK3tide SEQ ID NO: 2 (FITC-GGEEEEYFELVKKKK-NH2) for JAK2 and JAK3. Specific assay conditions are described in Table1:
# The terminated reactions were transferred to the Caliper LabChip 3000 reader and the turnover of each reaction was measured by determining the substrate/product ratio.
# Test compounds were dissolved in DMSO (10 mM) and transferred into 1.4 mL flat bottom or V-shaped Matrix tubes carrying a unique 2D matrix chip by individual compound hubs. The numbers of these chips were distinctively linked to the individual compound identification numbers. The stock solutions were stored at −20° C. if not used immediately. For the test procedure the vials were defrosted and identified by a scanner whereby a working sheet was generated that guided the subsequent working steps. Compound dilutions were made in 96 well plates. This format enabled the assay of maximally 40 individual test compounds at 8 concentrations (single points) including 4 reference compounds. The dilution protocol included the production of pre-dilution plates, master plates and assay plates:
# Pre-dilution plates: 96 polypropylene well plates were used as pre-dilution plates. A total of 4 pre-dilution plates were prepared including 10 test compounds each on the plate positions A1-A10, one standard compound at A11 and one DMSO control at A12. All dilution steps were done on a HamiltonSTAR robot.
# Master plates: 100 μL of individual compound dilutions including standard compound and controls of the 4 “pre-dilution plates” were transferred into a 384 “master plate” including the following concentrations 1,820, […], 182, 54.6, 18.2, 5.46, 1.82 and 0.546 μM, respectively in 90% of DMSO.
# Assay plates: Identical assay plates were then prepared by pipetting 100 nL each of compound dilutions of the master plates into 384-well “assay plates”. In the following the compounds were mixed with 9 μL of assays components plus 9 μL enzyme corresponding to a 1:181 dilution steps enabling the final concentration of 10, 3.0, 1.0, 0.3, 0.1, 0.03, 0.01 and 0.003 μM, respectively. The preparation of the master plates were handled by the Matrix PlateMate Plus robot and replication of assay plates by the HummingBird robot.
# T1 sequence (O60674 808-1132): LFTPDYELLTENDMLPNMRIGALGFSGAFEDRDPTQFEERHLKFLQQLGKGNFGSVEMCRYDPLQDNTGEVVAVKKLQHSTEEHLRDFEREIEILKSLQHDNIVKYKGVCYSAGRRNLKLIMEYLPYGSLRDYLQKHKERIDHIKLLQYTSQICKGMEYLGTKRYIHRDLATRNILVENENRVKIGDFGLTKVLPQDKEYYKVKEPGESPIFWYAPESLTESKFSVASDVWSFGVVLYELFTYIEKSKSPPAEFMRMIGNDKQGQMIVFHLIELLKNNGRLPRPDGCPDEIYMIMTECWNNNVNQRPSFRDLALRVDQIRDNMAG
row,Structure (SMILES),IC50 [nM]
1,"O=C(c1c(F)cc(-n2ccc3cnc(Nc4ccnc(N5CCNC6(CC6)C5)c4)nc32)cc1F)N1CCOCC1 [Example 281, (4-{2-[2-(4,7-Diaza-spiro[2.5]oct-7-yl)-pyridin-4-ylamino]-pyrrolo[2,3-d]pyrimidin-7-yl}-2,6-difluoro-phenyl)-morpholin-4-yl-methanone]",24
2,"CS(=O)(=O)c1ccc(-n2ccc3cnc(Nc4ccc(N5CCNCC5)nc4)nc32)cc1 [Example 282, [7-(4-Methanesulfonyl-phenyl)-7H-pyrrolo[2,3-d]pyrimidin-2-yl]-(6-piperazin-1-yl-pyridin-3-yl)-amine]",82
3,"CN1CCN(c2ccc(Nc3ncc4ccn(-c5ccc(N6CCCC6=O)cc5)c4n3)cn2)CC1 [Example 283, 1-(4-{2-[6-(4-Methyl-piperazin-1-yl)-pyridin-3-ylamino]-pyrrolo[2,3-d]pyrimidin-7-yl}-phenyl)-pyrrolidin-2-one]",23
4,"CCN1CCN(c2ccc(Nc3ncc4ccn(-c5ccc(CC(=O)N6CCN(C)CC6)cc5)c4n3)cc2C)CC1 [Example 284, 2-(4-{2-[4-(4-Ethyl-piperazin-1-yl)-3-methyl-phenylamino]-pyrrolo[2,3-d]pyrimidin-7-yl}-phenyl)-1-(4-methyl-piperazin-1-yl)-ethanone]",3.7
5,"O=C(c1ccc(-n2ccc3cnc(Nc4ccc(CN5CCNCC5)cc4)nc32)cc1F)N1CCOCC1 [Example 313, {2-Fluoro-4-[2-(4-piperazin-1-ylmethyl-phenylamino)-pyrrolo[2,3-d]pyrimidin-7-yl]-phenyl}-morpholin-4-yl-methanone]",3.7
6,"CCN1CCN(Cc2ccc(Nc3ncc4ccn(-c5cc(F)c(CN6CCOCC6)c(F)c5)c4n3)nc2)CC1 [Example 316, [7-(3,5-Difluoro-4-morpholin-4-ylmethyl-phenyl)-7H-pyrrolo[2,3-d]pyrimidin-2-yl]-[5-(4-ethyl-piperazin-1-ylmethyl)-pyridin-2-yl]-amine]",73
7,"CCN1CCN(Cc2ccc(Nc3ncc4ccn(-c5ccc(S(C)(=O)=O)cc5)c4n3)nc2)CC1 [Example 317, [5-(4-Ethyl-piperazin-1-ylmethyl)-pyridin-2-yl]-[7-(4-methanesulfonyl-phenyl)-7H-pyrrolo[2,3-d]pyrimidin-2-yl]-amine]",940
8,"CC(C)(C)OC(=O)N1CCC(n2cc(Nc3ncc4ccn(-c5cc(F)c(CN6CCOCC6)c(F)c5)c4n3)cn2)CC1 [Example 320, 4-{4-[7-(3,5-Difluoro-4-morpholin-4-ylmethyl-phenyl)-7H-pyrrolo[2,3-d]pyrimidin-2-ylamino]-pyrazol-1-yl}-piperidine-1-carboxylic acid tert-butyl ester]",9.5
9,"Cc1ccc(Nc2ncc3ccn(-c4ccc(C(=O)N5CCOCC5)c(F)c4)c3n2)cc1 [Example 324, [2-Fluoro-4-(2-p-tolylamino-pyrrolo[2,3-d]pyrimidin-7-yl)-phenyl]-morpholin-4-yl-methanone]",26
10,"Cc1ccc(Nc2ncc3ccn(-c4cc(F)c(CN5CCOCC5)c(F)c4)c3n2)cc1 [Example 325, [7-(3,5-Difluoro-4-morpholin-4-ylmethyl-phenyl)-7H-pyrrolo[2,3-d]pyrimidin-2-yl]-p-tolyl-amine]",25
11,"Cc1ccc(Nc2ncc3ccn(-c4ccc(S(C)(=O)=O)cc4)c3n2)cc1CN1CCOCC1 [Example 328, [7-(4-Methanesulfonyl-phenyl)-7H-pyrrolo[2,3-d]pyrimidin-2-yl]-(4-methyl-3-morpholin-4-ylmethyl-phenyl)-amine]",16
12,"Fc1cc(-n2ccc3cnc(Nc4ccc(CN5CCN(C6CC6)CC5)cc4)nc32)cc(F)c1CN1CCOCC1 [Example 329, [4-(4-Cyclopropyl-piperazin-1-ylmethyl)-phenyl]-[7-(3,5-difluoro-4-morpholin-4-ylmethyl-phenyl)-7H-pyrrolo[2,3-d]pyrimidin-2-yl]-amine]",4
13,"O=C(c1ccc(-n2ccc3cnc(Nc4ccc(CN5CCN(C6CC6)CC5)cc4)nc32)cc1F)N1CCOCC1 [Example 330, (4-{2-[4-(4-Cyclopropyl-piperazin-1-ylmethyl)-phenylamino]-pyrrolo[2,3-d]pyrimidin-7-yl}-2-fluoro-phenyl)-morpholin-4-yl-methanone]",14

# Stronger by IC50, values ahead:
row,IC50 [nM],Structure (SMILES)
1,3.5,"CN1CCN(c2ccc(Nc3ncc4ccn(-c5cc(F)c(CO)c(F)c5)c4n3)cn2)CC1 [Example 280, (2,6-Difluoro-4-{2-[6-(4-methyl-piperazin-1-yl)-pyridin-3-ylamino]-pyrrolo[2,3-d]pyrimidin-7-yl}-phenyl)-methanol]"
2,< 3,"CCN1CCN(c2ccc(Nc3ncc4ccn(-c5ccc(CN6CCOCC6)c(F)c5)c4n3)cc2C)CC1 [Example 285, [4-(4-Ethyl-piperazin-1-yl)-3-methyl-phenyl]-[7-(3-fluoro-4-morpholin-4-ylmethyl-phenyl)-7H-pyrrolo[2,3-d]pyrimidin-2-yl]-amine]"
3,< 3,"O=C(c1c(F)cc(-n2ccc3cnc(Nc4ccc(CN5CCNCC5)cc4)nc32)cc1F)N1CCOCC1 [Example 314, {2,6-Difluoro-4-[2-(4-piperazin-1-ylmethyl-phenylamino)-pyrrolo[2,3-d]pyrimidin-7-yl]-phenyl}-morpholin-4-yl-methanone]"
4,< 3,"Fc1cc(-n2ccc3cnc(Nc4ccc(CN5CCNCC5)cc4)nc32)cc(F)c1CN1CCOCC1 [Example 315, [7-(3,5-Difluoro-4-morpholin-4-ylmethyl-phenyl)-7H-pyrrolo[2,3-d]pyrimidin-2-yl]-(4-piperazin-1-ylmethyl-phenyl)-amine]"
5,< 3,"CC(=O)N1CCN(Cc2ccc(Nc3ncc4ccn(-c5cc(F)c(CN6CCOCC6)c(F)c5)c4n3)cc2)CC1 [Example 318, 1-(4-{4-[7-(3,5-Difluoro-4-morpholin-4-ylmethyl-phenyl)-7H-pyrrolo[2,3-d]pyrimidin-2-ylamino]-benzyl}-piperazin-1-yl)-ethanone]"
6,< 3,"CC(=O)N1CCN(Cc2ccc(Nc3ncc4ccn(-c5ccc(S(C)(=O)=O)cc5)c4n3)cc2)CC1 [Example 319, 1-(4-{4-[7-(4-Methanesulfonyl-phenyl)-7H-pyrrolo[2,3-d]pyrimidin-2-ylamino]-benzyl}-piperazin-1-yl)-ethanone]"
7,< 3,"Fc1cc(-n2ccc3cnc(Nc4cnn(C5CCNCC5)c4)nc32)cc(F)c1CN1CCOCC1 [Example 321, [7-(3,5-Difluoro-4-morpholin-4-ylmethyl-phenyl)-7H-pyrrolo[2,3-d]pyrimidin-2-yl]-(1-piperidin-4-yl-1H-pyrazol-4-yl)-amine]"
8,< 3,"CC(=O)N1CCN(Cc2ccc(Nc3ncc4ccn(-c5ccc(C(=O)N6CCOCC6)c(F)c5)c4n3)cc2)CC1 [Example 322, 1-[4-(4-{7-[3-Fluoro-4-(morpholine-4-carbonyl)-phenyl]-7H-pyrrolo[2,3-d]pyrimidin-2-ylamino}-benzyl)-piperazin-1-yl]-ethanone]"
9,3.2,"CC(=O)N1CCN(Cc2ccc(Nc3ncc4ccn(-c5cc(F)c(C(=O)N6CCOCC6)c(F)c5)c4n3)cc2)CC1 [Example 323, 1-[4-(4-{7-[3,5-Difluoro-4-(morpholine-4-carbonyl)-phenyl]-7H-pyrrolo[2,3-d]pyrimidin-2-ylamino}-benzyl)-piperazin-1-yl]-ethanone]"
10,< 3,"Cc1ccc(Nc2ncc3ccn(-c4ccc(C(=O)N5CCOCC5)c(F)c4)c3n2)cc1CN1CCN(C)CC1 [Example 326, (2-Fluoro-4-{2-[4-methyl-3-(4-methyl-piperazin-1-ylmethyl)-phenylamino]-pyrrolo[2,3-d]pyrimidin-7-yl}-phenyl)-morpholin-4-yl-methanone]"
11,< 3,"Cc1ccc(Nc2ncc3ccn(-c4ccc(C(=O)N5CCOCC5)c(F)c4)c3n2)cc1CN1CCOCC1 [Example 327, {2-Fluoro-4-[2-(4-methyl-3-morpholin-4-ylmethyl-phenylamino)-pyrrolo[2,3-d]pyrimidin-7-yl]-phenyl}-morpholin-4-yl-methanone]"
